Series [1] is described as follows: octanol/water (PBS buffer) partition coefficient (log D). The series is classed as physicochemical.
Series [2] is described as follows: radiochemical stability of the radiotracer after preparation. The series is classed as physicochemical.
The test system of the next series is B16BL6 tumour. Briefly: PET imaging in B16BL6 tumour bearing mice. The series is classed as in vivo, C57BL/6J mice. To be noted: 1 h p.i., day-15. The procedure:
All our studies were performed in accordance with French and European Economic Community (86-609, EEC) guidelines for care of laboratory animals. Protocols were performed under the authorization of the French Direction des Services Veterinaires (authorization no. CE 86-12). Male C57BL/6J mice were originating from Charles River laboratories and maintained at 21° C. with a 12 h/12 h light/dark cycle, fed with a breeding diet (diet A04 from Safe, Villemoisson, France) and received water ad libitum. For transplantation B16BL6 cell suspension were grown in a monolayer culture to confluence, after which cells were trypsinized, washed with phosphate buffer saline (PBS) and they were resuspended in PBS. Mice were anesthetized by isoflurane (4% for induction and 2±0.5% for maintaining in oxygen flux) inhalation. The primary tumour model was induced by subcutaneous injection of 3×10^5 melanoma B16B16 cells in 0.1 mL on the right shoulder of mice.
Whole-body PET scans were acquired 1 h after bolus injection of […] of the appropriate [^18F]-compound in a volume of 0.15 ml via the tail vein. Mice were anesthetized by intraperitoneal (i.p.) administration (200 μL/mouse) of a ketamine-xylazine mixture in saline: ketamine (100 mg/kg, Imalgene™, Rhône Mérieux, Lyon, France) and xylazine (10 mg/kg, Rompun™, Bayer, France) before radiotracer injection and imaged by using a small-animal PET device, eXplore Vista microPET instrument (GE Healthcare). PET images were acquired by using static mode during 20 min. The acquired data were reconstructed using the 2-Dimensional ordered-subsets expectation maximization (OSEM) algorithm and corrected from decay, scatter and randoms. No corrections were applied for partial volume or attenuation.
Regional tracer uptake was quantified by standard region-of-interest (ROI) analysis with eXplore Vista software package. A manual 2D-ROI was drawn around the tumour in each slice where tumour was visible, and on several subsequent coronal planes containing muscle tissue at the forelimb. Results are expressed by percentage of injected dose per gram of tissue (% ID/g).
PET imaging was performed 1 h post injection of tracers in B16BL6 tumour bearing mice at day-15 after tumours cell inoculation.

Another series relates to melanoma B16F0 tumours. The experiment in a line: In vivo scintigraphic imaging of [125I]-labelled compounds. Details: species or system C57BL/6J mice. The note with it: planar scintigraphy. From the text:
C57BL/6J male mice (6-8 weeks old) were obtained from Charles River (l'Arbresle, France) and the B 16F0 syngenic melanoma from ATCC (no. CRL-6322). Primary melanoma model was induced by subcutaneous injection of B 16F0 murine melanoma cells in C57BL/6J mice. B 16F0 melanoma cell cultures were maintained as monolayers in Dulbecco's Modified Eagle's Medium (DMEM)/Glutamax (Invitrogen, Cergy Pontoise, France) supplemented with 10% fetal calf serum (Sigma, Saint Quentin Fallavier, France), 1% vitamins (Invitrogen, Cergy-Pontoise, France), 1 mM sodium pyruvate (Invitrogen), 1% non essential amino acids (Invitrogen), and 4 μg/mL of gentamycin base (Invitrogen). Cells were grown at 37° C. in a humidified incubator containing 5% CO2. For transplantation, cells in exponential growth phase were trypsinized, washed with phosphate buffer saline (PBS), and resuspended in PBS. C57BL/6J mice anesthetized by isoflurane (2%) inhalation were inoculated with 3×10^5 melanoma B16F0 cells in 0.1 mL of PBS by subcutaneous injection on the right flank.
In vivo scintigraphic imaging protocol was submitted and approved by the french regional ethical animal use committee (CEMEA, Auvergne, authorization no. CE18-09, 2010). Scintigraphic imaging of radioiodinated compounds in mice was performed using a gamma camera dedicated to small animal imaging (γIMAGER, Biospace Mesures, Paris, France). This camera consists of a R 3292 Hamamatsu position-sensitive photomultiplier having a continuous 4 mm thick×120 mm diameter CsI (Na) crystal leading to a 10 cm field of view. For ^125I imaging, the camera was equipped with parallel-hole collimator 1.8/0.2/20 (hole diameter/septum thickness/height in mm). All the acquisitions were performed with a 15% window centered on the 35 keV peak of ^125I.
On day 14 after tumour implantation, each [^125I]-labelled compound was administered intravenously via the tail vein with 3.7 MBq/mouse (range 3-8 animals/compounds). The injected activity to each mouse was also determined from scintigraphic imaging of the syringe before and after the injection of the radiotracer. At different times after administration (1 h, 3 h, 6 h, 24 h, 72 h, 5 d, 7 d, 10 d and 14 d), mice were anaesthetized by i.p. administration (200 μL/mouse) of a ketamine-xylazine mixture in saline: ketamine (100 mg/kg, Imalgene, Rhône Merieux, Lyon, France) and xylazine (10 mg/kg, Rompun, Bayer, France). A 10 min duration image was acquired on anesthetized mice placed in prone position over the collimator of the camera. Reproducibility in animal positioning for the serial images was achieved using a graduated reference grid.
Quantitative analysis of scintigraphic scans was performed using the GAMMAVISION+ software (Biospace Mesures, Paris, France). Regions of interest (ROIs) were manually drawn around the tumour, the whole body area, the bladder, the eyes, the submaxillary and thyroid glands and the controlateral muscle which was chosen as background. For each ROI, total activity, min and max pixel values, ROI size (in mm^2), average activity per mm^2 and standard deviation were obtained. These values were normalized to the injected activity. For the tumour, the activity was also normalized to the tumour weight as previously described (Miot-Noirault, Cancer biotherapy & radiopharmaceuticals, 24 (2009) 629-636) and expressed as percentage of injected dose per gram of tumour (% ID/g).

From patent publication US20150079000A1, “Labelled Quinoxaline Derivatives as Multimodal Radiopharmaceuticals and Their Precursors” (INSTITUT NATIONAL DE LA SANTET DE LA RECHERCHE MEDICALE, priority 2012, published 2015) come the findings set out here.

Turning to `CCN(CCNC(=O)c1cnc2cc(I)ccc2n1)Cc1cn(CC[18F])nn1` [[^18F](7)], in series [1], the “octanol/water (PBS buffer) partition coefficient (log D)” value was determined as 2.22±0.03. For the same compound, in series [2], the “radiochemically stable at room temperature after preparation” value is recorded as “at least 6 h”. In the series on B16BL6 tumour, the muscles activity is listed as 0.84 % ID/g, the tumour uptake is given as 14.55 % ID/g and the tumour/muscle ratio turned out to be 17.41.
Take `CCN(CCNC(=O)c1cnc2cc([125I])ccc2n1)CCOCCOCCOCCF.Cl.Cl` [[^125I]3]: the “% ID/g (tumour)” value in the series with melanoma B16F0 tumours (1 h after i.v. injection) worked out at 11.7 ± 2.2 % ID/g; in the series with melanoma B16F0 tumours (3 h after i.v. injection), 12.1 ± 1.7 % ID/g; in the series on melanoma B16F0 tumours (6 h after i.v. injection) it was 12.1 ± 1.9 % ID/g; in the series on melanoma B16F0 tumours (24 h after i.v. injection), 12.4 ± 2.3 % ID/g; in the series on melanoma B16F0 tumours (72 h after i.v. injection), 8.6 ± 3.6 % ID/g; in the series on melanoma B16F0 tumours (5 d after i.v. injection) it was 5.8 ± 2.4 % ID/g. Moreover, the “% ID/g (tumour)” value amounted to 2.7 ± 0.8 % ID/g with melanoma B16F0 tumours (7 d after i.v. injection), 1.3 ± 0.4 % ID/g with melanoma B16F0 tumours (10 d after i.v. injection) and 0.6 ± 0.3 % ID/g in the series with melanoma B16F0 tumours (14 d after i.v. injection).
Regarding `CCN(CCNC(=O)c1cnc2cc([125I])ccc2n1)CCOCCOCCOCCOCCOCCOCCOCCF` [[^125I]5], the “% ID/g (tumour)” value was 6.8 ± 1.8 % ID/g with melanoma B16F0 tumours (1 h after i.v. injection); 7.8 ± 1.5 % ID/g in the series with melanoma B16F0 tumours (3 h after i.v. injection); 7.2 ± 1.1 % ID/g in the series on melanoma B16F0 tumours (6 h after i.v. injection); 6.8 ± 1.7 % ID/g with melanoma B16F0 tumours (24 h after i.v. injection); 3.8 ± 0.7 % ID/g in the series on melanoma B16F0 tumours (72 h after i.v. injection); 2.7 ± 0.3 % ID/g in the series with melanoma B16F0 tumours (5 d after i.v. injection). In addition, the “% ID/g (tumour)” value was found to be 1.5 ± 0.2 % ID/g in the series with melanoma B16F0 tumours (7 d after i.v. injection), 0.8 ± 0.3 % ID/g in the series with melanoma B16F0 tumours (10 d after i.v. injection) and 0.3 ± 0.01 % ID/g with melanoma B16F0 tumours (14 d after i.v. injection).
For the compound `CCN(CCNC(=O)c1cnc2cc([125I])ccc2n1)Cc1cn(CCF)nn1` [[^125I]7], the “% ID/g (tumour)” value is given as 13.0 ± 1.5 % ID/g in the series with melanoma B16F0 tumours (1 h after i.v. injection); 14.5 ± 0.1 % ID/g in the series with melanoma B16F0 tumours (3 h after i.v. injection); 15.9 ± 1.7 % ID/g in the series on melanoma B16F0 tumours (6 h after i.v. injection); 15.6 ± 3.4 % ID/g with melanoma B16F0 tumours (24 h after i.v. injection); 11.0 ± 0.7 % ID/g with melanoma B16F0 tumours (72 h after i.v. injection); 8.6 ± 0.4 % ID/g with melanoma B16F0 tumours (5 d after i.v. injection). In addition, the figures for the “% ID/g (tumour)” value with melanoma B16F0 tumours (7 d after i.v. injection), in the series on melanoma B16F0 tumours (10 d after i.v. injection) and with melanoma B16F0 tumours (14 d after i.v. injection) were 5.3 ± 0.8 % ID/g, 3.7 ± 0.3 % ID/g and 1.8 ± 0.4 % ID/g, respectively.
